We go through 1 molecule from article PMC5563523, “Discovery of a ROCK inhibitor, FPND, which prevents cerebral hemorrhage through maintaining vascular integrity by interference with VE-cadherin” (Cell Death Discovery, 2017).

The target in the assay is ROCK1 (Homo sapiens, UniProt Q13464). Briefly: Z'-LYTE kinase assay with ROCK1 enzyme, peptide substrate and […] ATP. It counts as biochemical.
ROCK1, sequence (Q13464 2-1354): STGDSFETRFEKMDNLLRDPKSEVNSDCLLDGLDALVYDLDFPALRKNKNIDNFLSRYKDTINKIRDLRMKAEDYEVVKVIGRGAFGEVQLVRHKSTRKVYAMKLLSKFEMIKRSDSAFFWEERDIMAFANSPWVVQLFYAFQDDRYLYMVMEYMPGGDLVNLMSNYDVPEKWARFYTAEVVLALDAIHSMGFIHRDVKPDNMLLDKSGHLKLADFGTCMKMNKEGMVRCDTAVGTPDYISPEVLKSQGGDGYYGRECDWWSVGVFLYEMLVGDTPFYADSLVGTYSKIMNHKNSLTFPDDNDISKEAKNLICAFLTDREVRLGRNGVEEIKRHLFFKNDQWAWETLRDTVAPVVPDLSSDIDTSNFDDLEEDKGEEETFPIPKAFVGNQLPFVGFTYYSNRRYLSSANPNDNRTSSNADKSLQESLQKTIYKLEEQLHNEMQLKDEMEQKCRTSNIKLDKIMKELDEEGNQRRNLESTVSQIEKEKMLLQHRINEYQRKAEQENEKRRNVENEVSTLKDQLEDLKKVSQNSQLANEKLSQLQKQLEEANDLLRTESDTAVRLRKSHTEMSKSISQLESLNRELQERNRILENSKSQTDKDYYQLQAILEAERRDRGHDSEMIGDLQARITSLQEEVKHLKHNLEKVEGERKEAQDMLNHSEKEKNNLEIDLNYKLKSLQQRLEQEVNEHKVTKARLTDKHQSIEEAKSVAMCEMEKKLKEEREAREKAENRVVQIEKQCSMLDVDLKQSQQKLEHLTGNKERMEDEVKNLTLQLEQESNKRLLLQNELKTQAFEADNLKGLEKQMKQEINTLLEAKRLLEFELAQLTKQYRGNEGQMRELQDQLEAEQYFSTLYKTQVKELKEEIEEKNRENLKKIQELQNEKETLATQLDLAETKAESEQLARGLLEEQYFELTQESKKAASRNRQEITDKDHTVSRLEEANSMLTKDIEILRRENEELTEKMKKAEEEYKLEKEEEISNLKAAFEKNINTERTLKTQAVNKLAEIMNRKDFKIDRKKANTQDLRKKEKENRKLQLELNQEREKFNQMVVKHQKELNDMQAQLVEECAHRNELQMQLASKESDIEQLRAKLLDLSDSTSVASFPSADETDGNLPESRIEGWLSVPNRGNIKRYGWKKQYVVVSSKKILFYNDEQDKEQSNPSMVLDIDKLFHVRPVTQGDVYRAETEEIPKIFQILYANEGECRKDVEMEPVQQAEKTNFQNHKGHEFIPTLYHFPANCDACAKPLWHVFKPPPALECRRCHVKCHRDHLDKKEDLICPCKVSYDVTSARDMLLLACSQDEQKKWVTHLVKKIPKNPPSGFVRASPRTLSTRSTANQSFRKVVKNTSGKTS

As to `Nc1nc(CN2CCN(c3ccccc3F)CC2)nc(Nc2cccc3ccccc23)n1` [FPND, 6-[4-(2-fluorophenyl)-1-piperazinyl]methyl-N-1-naphthyl-1,3,5-triazine-2,4-diamine], the IC50 stood at 11.2 ± 2.2 µM.
